Laboratory results taken from patent US6632793B1, “Immunological activity for a peptide of the limulus anti-LPS factor” (Centro de Ingenieria Genetica y Biotecnologia, priority 1997, dated 2003).
Where a SMILES comes first, the peptide text is derived from it.

Tested on: NO production in peritoneal macrophages
Test: NO2- secretion (Greiss) in LPS-activated peritoneal macrophages pre-incubated with peptide
Type: cell-based, Balb/c mice
Details: 5 μM pre-incubation 18 h, then LPS 1 μg/ml 72 h; FIG. 7
Protocol: Peritoneal elicited cells were obtained from Balb/c mice (CENPALAB, Havana, Cuba). Primary mouse macrophages was collected from the peritoneal cavity 4 days after intraperitoneal injection with 1 ml of 4% Brewer's thioglicollate broth. Cell were maintained in RPMI 1640 supplemented with 10% heat-inactivated fetal bovine serum, 2 mM L-glutamine, 200 units/ml penicillin, and 200 μg/ml streptomycin at 37° C. in 5% CO2/[…].
Assay for Secretion of NO2-(Jin, F^29, Nathan, C, Radzioch, 0, and Ding, A. Cell, 1997, 88: 417-426). Cells were plated in 96-well plates at 2×10^6 cells /ml in 200 μl of medium and incubated at 37° C. for 2 h, then non-adherent cells were removed by repeated washing with PBS. […] Cell viability was assessed by mitochondrial-dependent reduction of MTT to formazan (Szabo^30, c, Mitchell, J A, Gross, S S, Thiemermann, C, and Vane, JR. J. Pharm. Exp. Therap., 1992, 265: 674-80). […] Absorbance at 540 nm was recorded in a microplate reader (SUMA) with sodium nitrite as standards (Green^28, L C, Wagner, D A, Glogowski, J, et al. Anal Biochem 1982; 126: 131-8). […]
FIG. 7: Regulatory effect of LALF derived-peptide on NO production in stimulated peritoneal macrophages. […] Levels of NO were measured in the cells cultured supernatants using the Greiss method.

## CC[C@H](C)[C@H](NC(=O)[C@H](CCCNC(=N)N)NC(=O)[C@H](Cc1ccc(O)cc1)NC(=O)[C@H](Cc1c[nH]cn1)NC(=O)[C@@H](N)CS)C(=O)N[C@@H](CCCCN)C(=O)N1CCC[C@H]1C(=O)N[C@H](C(=O)N[C@@H](Cc1ccccc1)C(=O)N[C@@H](CCCNC(=N)N)C(=O)N[C@@H](CCCNC(=N)N)C(=O)N[C@@H](CC(C)C)C(=O)N[C@@H](CCCCN)C(=O)N[C@@H](Cc1c[nH]c2ccccc12)C(=O)N[C@@H](CCCCN)C(=O)N[C@@H](Cc1ccc(O)cc1)C(=O)N[C@@H](CCCCN)C(=O)NCC(=O)N[C@@H](CCCCN)C(=O)N[C@@H](Cc1ccccc1)C(=O)N[C@@H](Cc1c[nH]c2ccccc12)C(=O)N[C@@H](CS)C(=O)O)[C@@H](C)O [LALF] (H-CHYRIKPTFRRLKWKYKGKFWC-OH)
  NO production in LPS-activated macrophages (in words): up regulated
